In patent publication EP0434360A1, “New benziodiazepine analogs” (MERCK & CO. INC., priority 1989, dated 1991) one finds IC50 data, which are given here for 12 compounds.

Where two headings read alike, the source gives them in different places.

One assay has as its target T1, CCK receptor (pancreas) (Rattus norvegicus, UniProt P30551).
T1 construct: The whole pancreas was dissected free of fat tissue and was homogenized; from tissue; host or cells: rat whole pancreas membrane homogenate
T1 sequence (P30551 1-444): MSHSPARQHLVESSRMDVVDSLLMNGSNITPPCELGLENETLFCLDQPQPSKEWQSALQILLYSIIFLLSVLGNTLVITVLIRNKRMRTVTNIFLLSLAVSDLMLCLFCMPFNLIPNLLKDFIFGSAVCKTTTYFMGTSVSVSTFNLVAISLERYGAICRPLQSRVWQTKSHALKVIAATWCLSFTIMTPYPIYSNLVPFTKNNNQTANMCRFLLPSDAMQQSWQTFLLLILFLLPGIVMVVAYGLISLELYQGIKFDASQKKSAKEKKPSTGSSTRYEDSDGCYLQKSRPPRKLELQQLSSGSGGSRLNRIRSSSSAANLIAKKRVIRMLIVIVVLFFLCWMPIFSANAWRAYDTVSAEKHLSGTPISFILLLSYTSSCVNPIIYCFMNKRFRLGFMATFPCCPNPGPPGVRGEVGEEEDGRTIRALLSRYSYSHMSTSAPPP
Kind of assay: CCK Receptor Binding (Pancreas), inhibition of 125I-CCK-33 binding. The procedure: 1. CCK Receptor Binding (Pancreas)
CCK-33 was radiolabeled with ^1251-Bolton Hunter reagent (2000 Cilmmole) as described by Sankara et al. (J. Biol. Chem. 254: 9349-9351, 1979). Receptor binding was performed according to Innis and Snyder (Proc. Natl. Acad. Sci. 77 6917-6921, 1980) with the minor modification of adding the additional protease inhibitors, phenyl-methane sulfonyl fluoride and o-phenanthroline.
Male Sprague-Dawley rats (200-350 g) were sacrificed by decapitation. The whole pancreas was dissected free of fat tissue and was homogenized in 20 volumes of ice-cold 50 mM, Tris HCI (pH 7.7 at 25°C) with a Brink- mann Polytron PT 10. The homogenates were centrifuged at 48,000 g for 10 min. Pellets were resuspended in Tris Buffer, centrifuged as above and resuspended in 200 volumes of binding assay buffer (50 mM Tris HCI, pH 7.7 at 25°C, 5 mM dithiothrietol, 0.1 mM bacitracin, 1.2 mM phenyl-methane sulfonyl fluoride and 0.5 mM o-phenanthroline). […] All assays were run in duplicate or triplicate. The reaction mixtures were incubated at 37°C for30 minutes and centrifuged in a Beckman Microfuge (4 minutes) immediately after adding 1 ml of ice-cold incubation buffer. The supernatant was aspirated and discarded, pellets were counted with a Beckman gamma 5000. For Scatchard analysis (Ann. N.Y. Acad. Sci. 51 : 660, 1949), ^125I-CCK-33 was progressively diluted with increasing concentrations of CCK-33.

Assay [1] has as its target T2, CCK receptor (brain, cerebral cortex) (Cavia porcellus, UniProt H0VZC5).
T2 construct: Cerebral cortex was dissected and used as a receptor source; from tissue; host or cells: guinea pig cerebral cortex membrane homogenate
T2 sequence (H0VZC5 1-426): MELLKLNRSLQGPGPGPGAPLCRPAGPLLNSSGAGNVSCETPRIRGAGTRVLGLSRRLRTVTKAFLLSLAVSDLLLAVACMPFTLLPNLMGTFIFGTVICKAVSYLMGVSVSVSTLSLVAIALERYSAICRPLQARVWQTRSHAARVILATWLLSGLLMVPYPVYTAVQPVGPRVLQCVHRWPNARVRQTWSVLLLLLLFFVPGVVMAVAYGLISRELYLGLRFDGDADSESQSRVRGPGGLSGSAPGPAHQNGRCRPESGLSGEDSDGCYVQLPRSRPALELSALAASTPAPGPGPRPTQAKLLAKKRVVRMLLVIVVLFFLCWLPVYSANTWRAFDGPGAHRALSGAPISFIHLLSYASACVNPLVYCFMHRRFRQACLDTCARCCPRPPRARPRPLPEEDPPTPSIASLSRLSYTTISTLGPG
Kind of assay: CCK Receptor Binding (Brain), inhibition of 125I-CCK-33 binding. Also noted: species or system guinea pig. The procedure: 2. CCK Receptor Binding (Brain)
CCK-33 was radiolabeled and the binding was performed according to the description for the pancreas method with modifications according to Saito et al., J. Neurochem. 37: 483-490, 1981.
Male Hartley guinea pigs (300-500 g) were sacrificed by decapitation and the brains were removed and placed in ice-cold 50 mM, Tris HCI plus 7.58 g/l Trizma-7.4 (pH 7.4 at 25°C). Cerebral cortex was dissected and used as a receptor source. Each gram of fresh guinea pig brain tissue was homogenized in 10 ml of Tris/Trizma buffer with a Brinkman polytron PT-10. The homogenates were centrifuged at 42,000 g for 15 minutes. Pellets were resuspended in Tris Buffer, centrifuged as above and resuspended in 200 volumes of binding assay buffer (10 mM N-2-hydroxyethyl-piperazine-N'-2-ethane sulfonic acid (HEPES), 5 mM MgCl2, 0.25 mg/ml bacitracin, 1 mM ethylene glycol-bis-(β-aminoethylether-N,N'-tetraacetic acid) (EGTA), and 0.4% bovine serum albumin (BSA)). […] All assays were run in duplicate or triplicate. The reaction mixtures were incubated at 25°C for 2 hours and centrifuged in a Beckman Microfuge (4 minutes) immediately after adding 1 ml of ice-cold incubation buffer. The supernatant was aspirated and discarded, pellets were counted with a Beckman gamma 5000.

Assay [2] addresses T3, gastrin receptor (gastric glands) (Cavia porcellus, UniProt H0VZC5).
T3 construct: The washed guinea pig gastric glands prepared as above were resuspended in 25 ml of standard buffer; from tissue; host or cells: isolated guinea pig gastric mucosal glands (collagenase-dispersed)
T3 sequence (H0VZC5 1-426): T2 sequence (H0VZC5 1-426)
Kind of assay: Gastrin Receptor Binding in Guinea Pig Gastric Glands.

The mark [3] stands for this setting: guinea pig cerebral cortex membranes, 125I-CCK-33, 25°C 2 hours, read-out: IC50(µM) ^125I-CCK Brain.
Where [4] appears, read: guinea pig gastric mucosal glands, 125I-gastrin, 25°C 30 minutes, read-out: IC50(µM) ^125I-Gastrin Gastric Glands.
[5] abbreviates: rat pancreas membranes, 125I-CCK-33, 37°C 30 minutes, read-out: IC50(µM) ^125I-CCK Pancreas.

As to `CN1C(=O)C(NC(=O)c2cc3cc(OCC(=O)O)ccc3[nH]2)N=C(c2ccccc2)c2ccccc21` (stereo not shown) [Example 16, 1,3-Dihydro-3-(5-carboxymethyloxyindole-2-carbonylamino)-1-methyl-5-phenyl-2H-1,4-benzodiazepin 2-one], the IC50 (in general, the concentration at which inhibition is half-maximal) on CCK receptor (pancreas) was 0.023 µM; in assay [1] (setting [3]), 0.16 µM.

As for `O=C(NC1N=C(c2ccccc2)c2ccccc2N(CCO)C1=O)c1cc2ccccc2[nH]1` (racemic) [Example 12, (RS)-N-(2,3-Dihydro-1-(2-hydroxyethyl)-2-oxo-5-phenyl-1 H-1,4-benzodiazepin-3-yl)-1 H-indole-2-carboxamide], the values for the IC50 (at CCK receptor (pancreas); in assay [1] (setting [3]); in assay [2] (setting [4])) were 0.0024 µM, 0.16 µM and 0.24 µM, respectively.

With `CN1C(=O)[C@@H](NC(=O)c2cc3ccccc3n2CCCC(=O)O)N=C(c2ccccc2)c2ccccc21` [Example 7, (S)-4-[-2-(((2,3-Dihydro-1-methyl-2-oxo-5-phenyl-1H-1,4-benzodiazepin-3-yl)amino)carbonyl)-1H-indolyl-1]-bu tanoic acid], the IC50 on CCK receptor (pancreas) turned out to be 0.0001 µM; in assay [1] (setting [3]), 0.23 µM; in assay [2] (setting [4]), 0.24 µM.

For the compound `Cc1cccc(NC(=O)N[C@@H]2N=C(c3ccccc3)c3ccccc3N(C)C2=O)c1` [Example 5, (R)-N-(2,3-Dihydro-1-methyl-2-oxo-5-phenyl-1 H-1,4-benzodiazepin-3-yl)-N'-(3-methylphenyl)-urea], the results for the IC50 in assay [1] and in assay [2] were 0.002 µM and 0.0011 µM, respectively.

In the case of `CN1C(=O)[C@H](NC(=O)Nc2cccc(C(=O)O)c2)N=C(c2ccccc2)c2ccccc21` [Example 10, (R)-3-((((2,3-Dihydro-l-methyl-2-oxo-5-phenyl-1H-1,4-benzodiazepin-3-yl)amino)carbonyl)amino)benzoic a cid], the figures for the half-maximal inhibitory concentration (IC50) (at CCK receptor (pancreas) (setting [5]); in assay [1]; in assay [2]) were 0.049 µM, 0.0039 µM and 0.009 µM, respectively.

In the case of `CN1C(=O)C(NC(=O)Nc2ccc(N)nc2)N=C(c2ccccc2)c2ccccc21` (racemic) [Example 14, (RS)-N-(6-Amino-3-pyridyl)-N'-(2,3-dihydro-l-methyl-2-oxo-5-phenyl-1H-1,4-benzodiazepin-3-yl)-urea], the IC50 on CCK receptor (pancreas) (setting [5]) was found to be 2.7 µM; in assay [1], 0.011 µM; in assay [2], 0.4 µM.

In the case of `CN1C(=O)[C@@H](NC(=O)c2cc3ccccc3n2CC(=O)O)N=C(c2ccccc2)c2ccccc21` [Example 6, 3(S)-3-(2-(N-carboxymethylindole)carbonylamino)-1,3-dihydro-1-methyl-5-phenyl-2H-1,4-benzodiazepin-2-one], the results for the IC50 (on CCK receptor (pancreas); in assay [1] (setting [3]); in assay [2] (setting [4])) were 0.00013 µM, 0.129 µM and 0.07 µM, respectively.

With `CCOC(=O)c1cccc(NC(=O)N[C@@H]2N=C(c3ccccc3)c3ccccc3N(C)C2=O)c1` [Example 19, (R)-3-((((2,3-Dihydro-1-methyl-2-oxo-5-phenyl-1H-1,4-benzodiazepin-3-yl)amino)carbonyl)amino)benzoic acid ethyl ester], the IC50 on CCK receptor (pancreas) worked out at 0.02 µM; in assay [1] (setting [3]), 0.026 µM; in assay [2] (setting [4]) it was 0.018 µM.

As for `CN1C(=O)C(NC(=O)Nc2cccc(C(=O)O)c2)N=C(c2ccccc2)c2ccccc21` (racemic) [Example 9, (RS)-3-((((2,3-Dihydro-1-methyl-2-oxo-5-phenyl-1 H-1,4-benzodiazepin-3-yl)amino)carbonyl)amino)benzoic acid], the results for the IC50 (at CCK receptor (pancreas); in assay [1]; in assay [2]) were 0.049 µM, 0.0039 µM and 0.009 µM, respectively.

For `Cc1cccc(NC(=O)NC2N=C(c3ccccc3)c3ccccc3N(CCO)C2=O)c1` (stereo not shown) [Example 17, N-(2,3-Dihydro-1-(2-hydroxyethyl)-2-oxo-5-phenyl-1 H-1,4-benzodiazepin-3-yl)-N'-(3-methylphenyl)-urea], the results for the IC50 (on CCK receptor (pancreas); in assay [1]; in assay [2]) were 0.069 µM, 0.012 µM and 0.0038 µM, respectively.

As for `COc1cccc(NC(=O)NC2N=C(c3ccccc3)c3ccccc3N(CCN(C)C)C2=O)c1` (stereo not shown) [Example 18, N-(2,3-Dihydro-1-(2-dimethylaminoethyl)-2-oxo-5-phenyl-1H-1,4-benzodiazepin-3-yl) -N'-(3-methoxyphenyl)-urea], the IC50 was 2.6 µM at CCK receptor (pancreas), 0.024 µM in assay [1] and 0.01 µM in assay [2].

`CN1C(=O)C(NC(=O)Nc2cc3c(cn2)[nH]c2ccccc23)N=C(c2ccccc2)c2ccccc21` (racemic) [Example 13, (RS)-N-(2,3-Dihydro-1-methyl-2-oxo-5-phenyl-1H-1,4-benzodiazepin-3-yl)-N'-9H-pyrido(3,4-b)indol-3-yl-urea]: the values for the half-inhibitory concentration (IC50) (on CCK receptor (pancreas); in assay [1]; in assay [2] (setting [4])) were 0.014 µM, 0.071 µM and 6.4 µM, respectively.
